Test results reported in patent publication US9351998B2, “Methods of nourishing animals” (MariCal, Inc., priority 2008, dated 2016).
“Also recorded” adds a separate entry of the source.

Experiments:
[1] = system: chick jejunal CaSR; experiment: phospho-ERK immunoblot of HEK cells transfected with chick jejunal CaSR cDNA after increase in extracellular Ca2+; assay type: cell-based, chicken; conditions: extracellular Ca2+ increased 0.5 mM to 10 mM
Method: HEK-293 cells were plated into 6-well plates so that the cells were 90% confluent at the time of transfection. The linearized and non-linearized plasmids were ethanol precipitated and quantified spectrophotometrically. A ratio of DNA to lipofectamine of 1:3.5 (4 μg of DNA and 14 μl Lipofectamine 2000) was used for the transfection procedure. To provide a negative control, only Lipofectamine was added to some HEK cells. After exposure to lipofectamine, hygromycin B (400 μg/ml) was used to select for HEK cells that had been transfected since the plasmid containing the putative CaSR sequence also contained a hygromycin resistance element.
At the start of hygromycin selection, flasks were about 40% confluent. All flasks experienced a high percentage of die off cells. After an interval of 10 days, all the cells in the negative control flasks were dead. […] Linear flask 1 and non-linear flask 1 were trypsinized by addition of 200 μl trypsin to redistribute dense colonies and prevent overcrowding 10 days after the start of hygromycin selection. New complete media was added containing 400 μg/ml hygromycin. At day 14, flasks had multiple colonies that were well spread out and were beginning to look overcrowded. Each flask was trypsinized, centrifuged and re-plated in a new flask, still under hygromycin selection. At day 17, transfected HEK cells were 60% confluent. […]

[2] = molecular target: T1, mammalian CaSR (Homo sapiens, UniProt P41180); experiment: FURA2 ratio imaging fluorimetry of HEK cells stably expressing mammalian CaSR; assay type: cell-based
T1 construct: expressed in transfected cells; host or cells: HEK cells stably expressing the mammalian CaSR
T1 sequence (P41180 20-1078): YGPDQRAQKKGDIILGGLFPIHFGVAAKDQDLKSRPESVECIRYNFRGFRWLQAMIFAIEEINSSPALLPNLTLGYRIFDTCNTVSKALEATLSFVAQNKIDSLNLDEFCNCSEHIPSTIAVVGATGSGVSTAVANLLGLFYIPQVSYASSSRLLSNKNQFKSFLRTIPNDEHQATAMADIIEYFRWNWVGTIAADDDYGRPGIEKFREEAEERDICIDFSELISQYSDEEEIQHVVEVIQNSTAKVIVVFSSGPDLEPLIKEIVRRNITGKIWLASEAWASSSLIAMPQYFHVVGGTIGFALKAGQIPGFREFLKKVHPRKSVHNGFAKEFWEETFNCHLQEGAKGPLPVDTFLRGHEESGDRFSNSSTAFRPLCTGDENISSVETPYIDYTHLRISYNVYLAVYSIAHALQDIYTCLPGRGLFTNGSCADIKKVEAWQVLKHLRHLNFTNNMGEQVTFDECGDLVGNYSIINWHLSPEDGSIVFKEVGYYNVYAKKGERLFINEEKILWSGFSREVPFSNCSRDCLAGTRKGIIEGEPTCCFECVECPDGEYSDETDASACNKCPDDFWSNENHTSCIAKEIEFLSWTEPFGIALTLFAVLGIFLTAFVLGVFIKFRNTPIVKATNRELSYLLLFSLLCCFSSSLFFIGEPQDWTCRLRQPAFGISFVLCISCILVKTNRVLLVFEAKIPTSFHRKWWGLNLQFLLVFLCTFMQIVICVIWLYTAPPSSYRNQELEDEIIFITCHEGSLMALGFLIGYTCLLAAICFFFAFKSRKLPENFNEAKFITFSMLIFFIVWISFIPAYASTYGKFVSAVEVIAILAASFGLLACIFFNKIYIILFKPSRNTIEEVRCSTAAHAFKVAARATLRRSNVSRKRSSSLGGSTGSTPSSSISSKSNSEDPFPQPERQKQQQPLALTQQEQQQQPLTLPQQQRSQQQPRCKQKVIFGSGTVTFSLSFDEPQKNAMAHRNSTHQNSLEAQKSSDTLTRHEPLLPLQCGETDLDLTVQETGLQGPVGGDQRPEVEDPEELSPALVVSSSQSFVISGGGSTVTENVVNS
Description: (§1) All methods and equipment utilized to perform experiments on HEK cells have been reported previously (Gama, L. and Breitwieser, G. E. 1998. A carboxyl-terminal domain controls the cooperativity for extracellular Ca2+ activation of the human calcium sensing receptor. A study with receptor-green fluorescent protein fusions. J. Biol. Chem. 273, 29712-29718; Bai, M., Quinn, S., Trivedi, S., Kifor, 0., Pearce, S. H., Pollak, M. R., Krapcho, K., Hebert, S. C. and Brown, E. M. 1996. Expression and characterization of inactivating and activating mutations in the human Ca2+o-sensing receptor. J. Biol. Chem. 271, 19537-19544). Untransfected HEK cells or, alternatively, cells transfected and expressing CaSR protein were cultured in Dulbecco's Modified Eagle Medium containing 10% fetal bovine serum and 1% penicillin-streptomycin in 75 cm^2 flasks until they reached confluence. Media was removed from the flasks and cells were loaded by exposure to Loading Buffer (125 mM NaCl, 4 mM KCl, 1.0 mMCaCl2, 1.0 mM MgCl2, 1 mM NaH2PO4, 20 mM HEPES, 1 gm/liter bovine serum albumin, and 1 gm/l glucose, pH ˜7.4, osmolality ˜285) containing 4.1 micromolar FURA2-AM (Molecular Probes Inc. Eugene, Oreg.) for 2 hr. Cells were then scraped from the surface of the flask using a standard cell scraper (Costar 3010, Corning Inc.). Cells were then pelleted from the suspension by low speed centrifugation to remove loading buffer and rinsed twice to remove extracellular FURA2 dye by two sequential suspensions and pelleting steps using low speed centrifugation. Immediately prior to the start of the experiment, cells were resuspended in various experimental buffers for analyses as described below. The Standard Experimental Buffer used for many studies was composed of: 125 mM NaCl, 4 mM KCl, 0.5 mMCaCl2, 0.5 mM MgCl2, 20 mM HEPES, 1 g/l glucose, pH ˜7.4, osmolality ˜285. All other buffers were variations on this basic composition where specific components within the Standard Experimental Buffer were varied while the remaining components were held constant.
(§2) Cell suspensions consisting of a total volume of 3 ml were analyzed in a PTI fluorimeter (PTI Model 814 Photomultiplier Detection System equipped with SC-500 Shutter Controller and PTI Driver and Analysis Software) within approximately 20 min after exposure to experimental buffers. Data was acquired using standard ratio image analysis as described previously using a data acquisition rate of 1.3 sec. for 500 or 1000 second intervals.
(§3) In selected experiments, the detergent Triton X-100 was added in order to lyse the cells and quantify differences in FURA2 ratio fluorescence. Triton X-100 was added to the cells to obtain a maximal fluorescence signal from the FURA2 for purposes of quantification.
Experiments on HEK cells were performed generally as described in Example 6 herein. […] Subsequent addition of Ca2+ to a final concentration of 5 mM produced an additional response (see FIG. 26A). No response was observed upon addition of 0.025% Mintrex Zn after the addition of experimental buffer (EB) (see FIG. 26B). […] In addition, the magnitude of the CaSR response to 5 mM Ca2+ was diminished by previous addition of Mintrex Zn.
For mammalian CaSR experiments, two individual aliquots from a single pool of HEK cells that stably express the recombinant mammalian CaSR protein were used for ratio imaging fluorimetry assays of CaSR activation generally as described in Example 6 herein. Addition of Ca++ to a final concentration of 2.5 mM produced a CaSR response that was also followed by responses after subsequent additions of 0.025% Zn proteinate followed by Ca++ to a final concentration of 7.5 mM (FIG. 29B). […] There was also a response to a subsequent dose of Ca++ to a final concentration of 7.5 mM (FIG. 29B). In both tracings, the detergent Triton X-100 was added as a final step to lyse the cells.
Experiments on HEK cells were performed generally as described in Example 6 herein. […]

[3] = system: avian CaSR; experiment: FURA2 ratio imaging fluorimetry of HEK cells stably expressing avian (chicken) CaSR; assay type: cell-based
Description: as §1, §2, §3
The ability of the CaSR modulator MC0100 to potentiate the response of avian and mammalian CaSRs to the chelated mineral amino acid complex, ZnPro, was tested. For avian CaSR experiments, three individual aliquots from a single pool of HEK cells that stably express the recombinant avian CaSR protein were used for ratio imaging fluorimetry assays of CaSR activation generally as described in Example 6 herein. […] In all aliquots, the detergent Triton X-100 was added as the last addition to lyse the cells (FIG. 29A).
From a single pool of HEK cells stably expressing the avian CaSR, aliquots of cells were removed and analyzed using ratio imaging fluorimetry generally as described in Example 6 herein. After a standard addition of Ca++ to a final concentration of 2.5 mM, either 0.0025%, 0.025% or 0.25% Zinc Proteinate was added followed by a second addition of Ca++ to a final concentration of 7.5 mM. Subsequently, an aliquot of the detergent Triton X-100 was added to lyse the cells. […] The magnitude of the subsequent CaSR response to Ca++ was reduced via increasing Zn Proteinate stimulation.
Fluorimetry analysis was performed on HEK cells expressing the recombinant chicken CaSR protein generally as described in Example 6 herein.

[4] = molecular target: T2, recombinant human CaSR protein (Homo sapiens, UniProt P41180); experiment: FURA2 ratio fluorimetry of HEK cells expressing recombinant human CaSR; assay type: cell-based
T2 construct: expressed in transfected cells; host or cells: HEK cells
T2 sequence (P41180 20-1078): T1 sequence (P41180 20-1078)
Description: as §1, §2, §3

[5] = molecular target: recombinant CaSR protein (Homo sapiens, UniProt P41180); conditions: concentrations of spermine and calcium present in sow's milk (FIG. 20C); cited from earlier work
[6] = system: chicken CaSR; experiment: CaSR dependent ERK 1/2 phosphorylation (Western blot) in HEK cells transfected with chicken CaSR; assay type: cell-based; conditions: various concentrations of bacitracin Zn
Sequence of chicken CaSR (as listed by the source): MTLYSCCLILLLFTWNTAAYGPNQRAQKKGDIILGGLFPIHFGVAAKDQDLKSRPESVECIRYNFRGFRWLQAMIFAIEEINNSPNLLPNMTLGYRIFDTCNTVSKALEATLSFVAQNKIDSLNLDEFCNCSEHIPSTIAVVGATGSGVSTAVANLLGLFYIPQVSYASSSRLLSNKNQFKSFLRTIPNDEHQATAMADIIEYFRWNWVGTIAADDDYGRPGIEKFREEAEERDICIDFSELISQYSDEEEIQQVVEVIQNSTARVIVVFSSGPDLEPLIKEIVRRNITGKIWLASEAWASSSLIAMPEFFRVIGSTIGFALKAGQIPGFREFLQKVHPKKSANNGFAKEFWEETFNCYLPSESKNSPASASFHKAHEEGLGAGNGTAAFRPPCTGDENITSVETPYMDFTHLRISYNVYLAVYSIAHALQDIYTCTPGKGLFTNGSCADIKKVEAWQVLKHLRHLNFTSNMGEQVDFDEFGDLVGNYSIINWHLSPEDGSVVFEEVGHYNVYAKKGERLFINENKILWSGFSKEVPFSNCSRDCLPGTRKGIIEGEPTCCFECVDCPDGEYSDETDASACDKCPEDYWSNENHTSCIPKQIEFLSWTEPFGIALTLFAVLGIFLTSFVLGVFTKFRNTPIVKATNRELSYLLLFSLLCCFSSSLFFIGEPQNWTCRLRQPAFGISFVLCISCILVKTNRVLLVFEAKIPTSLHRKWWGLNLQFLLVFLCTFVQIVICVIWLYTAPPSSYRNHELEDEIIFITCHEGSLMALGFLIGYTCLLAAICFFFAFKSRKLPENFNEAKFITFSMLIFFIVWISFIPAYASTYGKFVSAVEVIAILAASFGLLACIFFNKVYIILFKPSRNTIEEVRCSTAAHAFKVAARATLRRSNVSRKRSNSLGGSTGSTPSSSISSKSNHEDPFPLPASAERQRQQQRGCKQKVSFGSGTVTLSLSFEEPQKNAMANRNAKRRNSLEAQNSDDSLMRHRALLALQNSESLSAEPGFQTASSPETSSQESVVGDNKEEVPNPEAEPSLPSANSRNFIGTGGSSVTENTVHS
Method: HEK cells transfected with the chicken CaSR were cultured under standard conditions (DMEM with 10% FCS). Confluent flasks were serum-starved overnight in DMEM supplemented with 0.2% BSA and pre-incubated for 60 min at 37° C. in the following medium: 125 mM NaCl, 4 mM KCl, 20 mM Hepes, 0.1% glucose, 0.8 mM NaH2PO4, 1 mM MgCl2, 0.1% BSA, 0.5 mM CaCl2, pH 7.45. The cells were then incubated in the same medium without BSA in the presence of different mineral chelates at different concentrations (see below) for 15 min at 37° C. At the end of the incubation treatment media was removed and cells were washed with PBS and than lysed in 250 microliter of M-PER lysis buffer (Pierce Chemical Company, Rockford, Ill.) containing 10 ul/ml of protease inhibitors (Pierce Chemical Company, Rockford, Ill.). Cell lysates were centrifuged for 10 min at 4° C. at 14,000×g. The protein content in the supernatants was analyzed using the BCA Protein Assay system from Pierce Chemical Company, Rockford, Ill. Equal amounts of protein (20 ug) were combined with 4× loading buffer and […] DTT, heated to 95° C., separated by SDS gel electrophoresis and electrotransferred to PVD membranes. The membranes were incubated in 1% BSA in TBS-T (TRIS-buffered saline containing Tween 20 at 0.1%) overnight. After 4 washes in TBS-T the membranes were incubated with primary antibody (anti phosphoERK at 1:400 dilution; this antibody recognizes the phosphorylated form of ERK 1/2) for 1.5 hours at room temperatures, washed 4 times and incubated with secondary antibody (anti mouse at 1:50,000 dilution). After 4 washes in TBS-T the membranes were developed using the ECL Western Blotting system.
The experiments described in FIGS. 34 A and B used the following metal chelate treatments: ZnProteinate, CuProteinate and MnProteinate (Balchem Corporation, New Hampton, N.Y.) at the following concentrations: 0.025% and 2.5%, or at a concentration of 0.025% with 1 micromolar MC 0100 (a calcimimetic); or various concentrations of bacitracin Zn.

## [Ca+2] [Ca2+]
[1]
  activation of the ERK kinase pathway (phospho-ERK): selective activation

## N[C@@H](Cc1ccccc1)C(=O)O [L-Phenylalanine]
[2]; 3 mM L-Phe after 0.025% Mintrex Zn, 1.5 mM Ca++, Ca++ to 5 mM
  effect on Mintrex Zn inhibition of CaSR response to Ca++ stimulus: reversed Mintrex-Zn's inhibition
[3]; 3 mM L-Phe after 0.25% Mintrex Zn, Ca++ to 7.5 mM
  effect on Mintrex Zn inhibition of CaSR response to Ca++ stimulus: reversed Mintrex-Zn's inhibition

## CC(C)(Cc1ccc2ccccc2c1)NC[C@@H](O)COc1cccc(Cl)c1C#N [MC106]
[2]; 1 micromolar MC106 added first
  effect on CaSR response to 2.5 mM Ca2+: eliminated
  effect on subsequent CaSR response to 5 mM Ca2+: reduced
[2]; 1 micromolar MC106 in DMSO
  CaSR response to the modulator itself: did not itself produce a CaSR response; also recorded: did not elicit a CaSR response
[2]; initial addition of 1 micromolar MC106
  effect on CaSR responses to 0.25% Mintrex Zn or 5.5 mM Ca2+: reduced or eliminated responses
[2]; pre-addition of MC106 (FIG. 30D)
  effect of modulator on CaSR stimulation by Mintrex Zn: suppress the stimulation
[3]; 1 micromolar MC106, 0.25% Zinc Proteinate
  effect of prior modulator on CaSR response to Zn Proteinate: reduced the avian CaSR's response

## NCCCN [diaminopropane]
[4]
  activation of recombinant human CaSR (intracellular calcium): sharp increase in intracellular calcium

## N=C(N)NCCC[C@H](N)C(=O)O.NCC(=O)O.NCC(=O)O [gly-gly-arg, glycine-glycine-arginine]
[4]
  activation of recombinant human CaSR (intracellular calcium): significant activation

## NCCCNCCCCNCCCN [spermine]
[5]
  activation of recombinant CaSR: activated

## Casein
[4]
  activation of recombinant human CaSR (intracellular calcium): acts as an agonist

## bacitracin Zn
[6]
  ERK1/2 phosphorylation as compared to Ca++ with MC0100: increase in ERK1/2 phosphorylation

## bovine serum albumin: a protein that also binds calcium
[4]
  activation of recombinant human CaSR (intracellular calcium): has no effect
